Results published in patent publication US6720184B1, “Method of altering sphingolipid metabolism and detecting fumonisin ingestion and contamination” (Emory University, priority 1991, dated 2004).
Read-outs that look alike come from different tables or passages of the source.

Legend:
rat hepatocytes [1] = assay: radiolabelling of phospholipids from [14C]serine in hepatocytes; assay type: cell-based; settings: 16 h with [14C]serine
Procedure: Other methods—The incorporation of radiolabel into other lipids was determined by separating the phospholipids by TLC using silica gel H plates developed with CHCl,:methanol:formic acid:water (56:30:2:1, v/v/v/v), visualization of the spots and standards with I2 vapor, and quantitation by scintillation counting. The amount of label in fatty acids was estimated using samples that had been incubated with 0.1 M KOH in methanol for 1 h at 37° C. and separated using the ceramide TLC system because the methyl esters migrate near the solvent front under these conditions.

rat hepatocytes [2] = assay: hepatocyte viability (trypan blue exclusion); assay type: cell-based; settings: 1 μM, 4 d
Procedure: Hepatocyte culture—Hepatocytes were prepared by a collagenase perfusion method, as known in the art as described in (22), from male Sprague-Dawley rats (125 to 200 g) fed a chow diet (Ralston Purina, St. Louis, Mo.) ad libitum. The hepatocytes were isolated using carefully aseptic procedures and plated in 60 mm tissue culture dishes coated with collagen for short term (<24 h) or with Matrigel for longer term (3 to 4 d) experiments. After plating for 4 h, the medium was changed to 2 ml of DMEM (with 3.7 g/L NaHCO3) containing 10 μg/ml f insulin, 6.1 g/L of penicillin, 10 g/L of streptomycin sulfate, and varying concentrations of fumonisins (added from a 1 mM solution in Delbecco's phosphate buffered saline). The cells were maintained in a tissue culture incubator at 37° C. and an atmosphere of 5% CO2; the medium was changed every 24 h.

ceramide synthase [3] = assay: in vitro assay of ceramide synthase, rat liver microsomes; assay type: biochemical; settings: inhibition may be biphasic (FIG. 5), read-out: apparent IC50 for inhibition of ceramide synthase in vitro
Procedure: In vitro assays of serine palmitoyltransferase and ceramide synthase. A microsomal fraction was isolated from rat liver and assayed for serine palmitoyltransferase, as is known in the art as described in (24,29), and ceramide synthase, as is known in the art as described in (30), in the presence of varying concentrations of fumonisin B1. […] The reaction was initiated by adding palmitoyl-CoA and, after incubation at 37° C. for 15 min, the products were extracted, resolved by TLC, and quantitated as described above. Background counts were subtracted using data from identical assays that omitted palmitoyl-CoA.

ceramide synthase [4] = assay: conversion of [3H]sphingosine to [3H]ceramide by intact hepatocytes; assay type: cell-based, rat; settings: 1 μM for 1 h before [3H]sphingosine (FIG. 4D)
Procedure: To measure the relative activity of ceramide synthase in intact hepatocytes, the cells were incubated with 1 μM fumonisin B1 for 1 h, then 1 μCi of [^3H]sphingosine was added and the cells were incubated for varying times. The [^3H]sphingosine was freshly purified because it decomposes rapidly to a material with an Rf similar to that of ceramides on TLC. The [^3H]sphingosine was diluted to 1 Ci/mmol and applied to a small silica gel column (Unisil, Clarkston, Ill.) in chloroform. The column was washed with 10-column volumes of chloroform, the [^3H]sphingosine was eluted with methanol and the purity confirmed by TLC. The [^3H]sphingosine was transferred to a small test tube, the solvent was evaporated under N2, a small volume of culture medium was added immediately, and the tube was sonicated for a few minutes using a bath-type sonicator. Aliquots of this solution were added to the cells, and at the end or the specified incubation period the cells were scraped from the dish, 25 μg of unlabelled ceramide carrier was added, and the lipids were extracted as described above. The [^3H]ceramides were separated from [^3H]sphingosine using silica gel H TLC plates developed with diethyl ether:methanol (99:1, v/v), visualized with I2 vapor, and the amount of radiolabel was determined by scintillation counting.

[5] = tested on: de novo sphingolipid biosynthesis; assay: [14C]sphingosine biosynthesis by hepatocytes isolated from rats given fumonisin B1 by gavage; assay type: in vivo, rat; settings: 5 mg/200 g body weight by gavage for 2 days
serum sphingolipids = assay: free long-chain bases in sera of ponies fed fumonisin-contaminated feed; assay type: in vivo, pony; settings: for serum sphinganine / serum sphingosine: pony 341, 22 ppm
Procedure: Materials—Corn screenings were ground in a Romer Mill (Romer Labs, Chesterfield, Mo.) and mixed thoroughly. Samples were taken from each lot and analyzed for fumonisins by high-performance liquid chromatography (HPLC) and thin-layer chromatography as is known in the art as previously described in (15). […] Using the mean fumonisin B1 level, individual rations were prepared daily by adding the corn screenings to pellets (NADC Horse Ration, Code 560, Purina Mills, St. Louis, Mo.) and molasses (Promolas Easy Mixer supreme, Pacific Molasses Co., San Francisco, Calif.) to yield the fumonisin concentrations cited in the text. In general, the ration contained 60% pellets, 10% molasses, and 30% corn screenings. The control diet consisted of pellets plus molasses.
(§1) Feeding protocols—Clinically normal ponies of varying age and sex were conditioned on the control diet for 21 days prior to the trial. Horse 341 was a 6 year old gelding (173-193 Kg), 299 was a 12 year old mare (205-215 Kg), 164 was a 12 year old mare (206-290 Kg) and 166 was a 16 year old mare (143-164 Kg). During the conditioning period and throughout the trial, all ponies received alfalfa hay by free choice. The test groups were fed varying levels of fumonisin (15 to 44 ppm) for varying lengths of time.
Analysis of serum long-chain bases—Blood was drawn approximately twice a week, centrifuged to obtain serum, and aliquots were frozen for analyses of free sphingosine and sphinganine by HPLC as is known in the art as described in (28). To quantitate total sphingolipids in some samples, the extracts were acid hydrolyzed before preparing the samples for HPLC.

[6] = Text: as §1
Clinical chemistry, evaluation, and tissue collection—The following clinical chemistry parameters were also analyzed with blood: total bilirubin, direct bilirubin, urea nitrogen, alkaline phosphatase, AST/SGOT, creatine kinase, gamma glutamyl transaminase, and bile acids. The animals were observed intermittently through ut each day and behavior changes were noted. Animals that were euthanized or died underwent a routine necropsy, and brain, liver, and kidney were prepared for microscopic study.

[7] = reference 13; cited from earlier work
[8] = pony #212, initially 44 ppm, by 7 days

In the case of CCCC[C@@H](C)[C@@H](OC(=O)C[C@@H](CC(=O)O)C(=O)O)[C@H](C[C@@H](C)C[C@H](O)CCCC[C@@H](O)C[C@H](O)[C@H](C)N)OC(=O)C[C@@H](CC(=O)O)C(=O)O [fumonisin B1], the “Radiolabelling Phosphatidylcholine” value (rat hepatocytes [1]; 1 μM) is reported as 2640 ± 264 cm/mg protein × 10^−3, the “Radiolabelling Phosphatidylethanolamine” value (rat hepatocytes [1]; 1 μM) is reported as 163 ± 4.4 cm/mg protein × 10^−3 and the “Radiolabelling Phosphatidylserine” value (rat hepatocytes [1]; 1 μM) is reported as 48.8 ± 2.9 cm/mg protein × 10^−3. The “Radiolabelling Phosphatidylcholine” value (rat hepatocytes [1]; 10 μM) was 2740 ± 196 cm/mg protein × 10^−3, the “Radiolabelling Phosphatidylethanolamine” value (rat hepatocytes [1]; 10 μM) was 153 ± 10 cm/mg protein × 10^−3 and the “Radiolabelling Phosphatidylserine” value (rat hepatocytes [1]; 10 μM) was 52.3 ± 3.6 cm/mg protein × 10^−3. For the same compound, the “number of viable cells” value (rat hepatocytes [2]) was “no decrease”, the IC50 (ceramide synthase [3]) was roughly 100 nM and the “[3H]sphingosine conversion to ceramides” value (ceramide synthase [4]) was “Inhibition”. For the same compound, the “ratio of free [14C]sphingosine to [14C]sphinganine” value [5] was 0.5±0.1, the “Ratio Sa/So” value (serum sphingolipids; Pony #164, feed 44 ppm, day 2) was 0.60 and the “Sphinganine, free, serum” value (serum sphingolipids; Pony #164, feed 44 ppm, day 2) was 70.2 ± 4.2 pmol/mL. For the same compound, the “Sphingosine, free, serum” value (serum sphingolipids; Pony #164, feed 44 ppm, day 2) was 117 ± 7 pmol/mL, the “Ratio Sa/So” value (serum sphingolipids; Pony #164, feed 44 ppm, day 7) was 1.67 and the “Sphinganine, free, serum” value (serum sphingolipids; Pony #164, feed 44 ppm, day 7) was 253 ± 22 pmol/mL. The “Sphingosine, free, serum” value (serum sphingolipids; Pony #164, feed 44 ppm, day 7) was 152 ± 13 pmol/mL, the “Ratio Sa/So” value (serum sphingolipids; Pony #164, feed 44 ppm, day 10) was 1.25 and the “Sphinganine, free, serum” value (serum sphingolipids; Pony #164, feed 44 ppm, day 10) was 283 ± 18 pmol/mL. For the same compound, the “Sphingosine, free, serum” value (serum sphingolipids; Pony #164, feed 44 ppm, day 10) was 226 ± 20 pmol/mL, the “Ratio Sa/So” value (serum sphingolipids; Pony #166, feed 44 ppm, day 2) was 0.87 and the “Sphinganine, free, serum” value (serum sphingolipids; Pony #166, feed 44 ppm, day 2) was 37.2 ± 0.2 pmol/mL. The “Sphingosine, free, serum” value (serum sphingolipids; Pony #166, feed 44 ppm, day 2) was 43 ± 6 pmol/mL, the “Ratio Sa/So” value (serum sphingolipids; Pony #166, feed 44 ppm, day 7) was 0.95 and the “Sphinganine, free, serum” value (serum sphingolipids; Pony #166, feed 44 ppm, day 7) was 62 ± 8 pmol/mL. For the same compound, the “Sphingosine, free, serum” value (serum sphingolipids; Pony #166, feed 44 ppm, day 7) was 66 ± 16 pmol/mL, the “Ratio Sa/So” value (serum sphingolipids; Pony #166, feed 44 ppm, day 10) was 1.92 and the “Sphinganine, free, serum” value (serum sphingolipids; Pony #166, feed 44 ppm, day 10) was 179 ± 8 pmol/mL. For the same compound, the “Sphingosine, free, serum” value (serum sphingolipids; Pony #166, feed 44 ppm, day 10) was 92 ± 4 pmol/mL, the “Ratio Sa/So” value (serum sphingolipids; Pony #166, feed 44 ppm, day 13) was 1.72 and the “Sphinganine, free, serum” value (serum sphingolipids; Pony #166, feed 44 ppm, day 13) was 174 ± 18 pmol/mL. The “Sphingosine, free, serum” value (serum sphingolipids; Pony #166, feed 44 ppm, day 13) was 100 ± 8 pmol/mL, the “increase in serum sphinganine versus level immediately prior to feeding” value (serum sphingolipids; pony 164, 44 ppm, day 2) was 6 fold and the “ratio of sphinganine to sphingosine versus pre-feeding” value (serum sphingolipids; pony 164, 44 ppm, day 2) was “doubled”. The “increase in serum sphinganine versus initial level” value (serum sphingolipids; pony 164, 44 ppm, day 7) was 22 fold, the “serum sphingosine versus initial level” value (serum sphingolipids; pony 164, 44 ppm, day 7) was 3.6 fold and the “increase in serum sphinganine” value (serum sphingolipids; pony 166, 44 ppm, day 2) was 2.7 fold. For the same compound, the “elevation in serum sphinganine” value (serum sphingolipids; pony 166, 44 ppm, day 10) was 13 fold, the “elevation in serum sphingosine” value (serum sphingolipids; pony 166, 44 ppm, day 10) was 2 fold and the serum sphinganine (serum sphingolipids; day 231) was 256 pmol/mL. It also gave a serum sphingosine (serum sphingolipids; day 231) of 163 pmol/mL, a serum sphinganine (serum sphingolipids; day 235) of 532 pmol/mL and a serum sphingosine (serum sphingolipids; day 235) of 418 pmol/mL. For the same compound, the “sphinganine to sphingosine ratio” value (serum sphingolipids; pony 341, reintroduction of 22 ppm on day 182) was greater than 1.5, the “further increase of serum sphingosine versus day 2” value (serum sphingolipids; [8]) was 2 fold and the “serum sphinganine versus level at day 2” value (serum sphingolipids; [8]) was 6.7 fold. For the same compound, the “sphinganine exceeding level of sphingosine” value (serum sphingolipids; [8]) was 1.9 fold, the serum sphingosine level (serum sphingolipids; pony #212, initially 44 ppm, within 2 days) was 147 ± 5 pmol and the “ratio of sphinganine to sphingosine” value (serum sphingolipids; pony #341, 15 ppm, first 130 days) was “fairly consistent elevation over the initial value”. For the same compound, the AST/SGDT ([6]; Pony 208, fumonisin feed (level not given), day 2) was 344 units, the AST/SGDT ([6]; Pony 208, fumonisin feed (level not given), day 6) was 2130 units and the AST/SGDT ([6]; Pony 208, fumonisin feed (level not given), day 10) was 1240 units. The AST/SGDT ([6]; Pony 208, fumonisin feed (level not given), day 13) was 1010 units, the AST/SGDT ([6]; Pony #164, feed 44 ppm, day 2) was 235 Units and the AST/SGDT ([6]; Pony #164, feed 44 ppm, day 7) was 357 Units. For the same compound, the AST/SGDT ([6]; Pony #164, feed 44 ppm, day 10) was 4000 Units, the clinical signs ([6]; Pony #164, feed 44 ppm, day 10) was “^1Pony was described as nervous and off feed from day 5; by day 9 was blind and down, and on day 10 had full clinical signs of ELEM and died that evening” and the clinical signs ([6]; Pony #166, feed 44 ppm, after being put back on full feed) was “^2Pony was described as lethargic from day 5; off feed from day 8; later put back on full feed and exhibited CNS signs; was euthanized on day 45”. For the same compound, the AST/SGDT ([6]; Pony #166, feed 44 ppm, day 2) was 199 Units, the AST/SGDT ([6]; Pony #166, feed 44 ppm, day 7) was 215 Units and the AST/SGDT ([6]; Pony #166, feed 44 ppm, day 10) was 1470 Units. For the same compound, the AST/SGDT ([6]; Pony #166, feed 44 ppm, day 13) was 2080 Units, the clinical outcome ([6]; ponies 164 and 166, feed 44 ppm) was “resulted in ELEM” and the time of death ([6]; pony 164, feed 44 ppm) was 10 days. For the same compound, the “elevation in AST/SGOT” value ([6]; pony 166, 44 ppm, day 10) was 7 fold, the day of euthanasia ([6]; pony 166, feed 44 ppm) was 45 days and the clinical outcome ([6]; pony 341, 15 then 22 ppm, day 235) was “died with the symptoms of equine leucoencephalomalacia”. For the same compound, the “serum AST/SGOT activities” value ([6]; pony 341, 15 then 22 ppm, until between day 224 and 231) was “essentially unaffected” and the disease caused [7] was “porcine pulmonary edema”.
